What was measured:
F508del CFTR [1] = molecular target: T1, F508del CFTR (Homo sapiens, UniProt P13569, DEL508-508); experiment: Equivalent current assay in primary CF airway epithelial cells (Corrector Activity, NAUC normalized to 3 μM VX809); assay type: cell-based; conditions: NAUC as % of positive control (VX-809)
T1 construct: Primary CF airway epithelial cells were obtained from the UNC Cystic Fibrosis Tissue Procurement and Cell Culture Core; host or cells: primary CF airway epithelial cells
T1 sequence (P13569 with tags, fused parts or gaps DEL508-508): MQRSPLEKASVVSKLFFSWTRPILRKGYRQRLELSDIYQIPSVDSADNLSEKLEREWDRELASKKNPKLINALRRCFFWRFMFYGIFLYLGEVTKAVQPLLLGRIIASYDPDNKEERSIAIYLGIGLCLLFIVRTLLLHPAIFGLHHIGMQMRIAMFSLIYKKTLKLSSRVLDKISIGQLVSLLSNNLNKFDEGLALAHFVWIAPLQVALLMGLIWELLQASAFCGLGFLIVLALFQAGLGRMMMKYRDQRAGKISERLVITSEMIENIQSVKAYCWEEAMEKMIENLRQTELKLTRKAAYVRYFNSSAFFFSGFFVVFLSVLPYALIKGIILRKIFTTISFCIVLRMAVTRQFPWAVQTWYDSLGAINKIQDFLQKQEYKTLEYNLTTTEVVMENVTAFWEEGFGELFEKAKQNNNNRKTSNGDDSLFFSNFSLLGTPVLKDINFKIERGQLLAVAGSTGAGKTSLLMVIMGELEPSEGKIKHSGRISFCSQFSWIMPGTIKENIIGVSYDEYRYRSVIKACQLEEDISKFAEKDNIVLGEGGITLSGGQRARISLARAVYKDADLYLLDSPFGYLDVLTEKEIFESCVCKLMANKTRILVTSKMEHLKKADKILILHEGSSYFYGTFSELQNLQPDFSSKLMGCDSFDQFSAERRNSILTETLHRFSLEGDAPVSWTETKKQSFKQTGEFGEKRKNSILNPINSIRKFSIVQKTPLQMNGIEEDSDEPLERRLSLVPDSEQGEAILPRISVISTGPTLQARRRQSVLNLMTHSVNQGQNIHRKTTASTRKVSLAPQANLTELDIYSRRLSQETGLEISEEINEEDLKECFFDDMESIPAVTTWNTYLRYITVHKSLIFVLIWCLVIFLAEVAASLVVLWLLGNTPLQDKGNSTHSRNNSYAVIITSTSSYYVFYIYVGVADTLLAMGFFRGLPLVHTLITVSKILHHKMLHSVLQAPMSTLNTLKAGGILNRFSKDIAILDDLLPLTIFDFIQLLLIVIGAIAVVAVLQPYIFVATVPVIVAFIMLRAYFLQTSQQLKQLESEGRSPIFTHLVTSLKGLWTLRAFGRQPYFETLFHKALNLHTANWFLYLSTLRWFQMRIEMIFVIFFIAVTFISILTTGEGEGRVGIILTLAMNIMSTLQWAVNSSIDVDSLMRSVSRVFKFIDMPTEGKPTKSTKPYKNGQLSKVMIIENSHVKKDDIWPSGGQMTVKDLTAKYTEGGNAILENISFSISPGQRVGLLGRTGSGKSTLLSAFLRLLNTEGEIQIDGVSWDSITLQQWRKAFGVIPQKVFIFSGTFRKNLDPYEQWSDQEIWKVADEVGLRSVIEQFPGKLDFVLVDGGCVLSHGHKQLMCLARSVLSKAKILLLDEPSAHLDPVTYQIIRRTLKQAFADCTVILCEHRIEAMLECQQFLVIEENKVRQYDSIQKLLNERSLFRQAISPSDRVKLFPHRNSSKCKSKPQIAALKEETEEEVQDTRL
Method in brief: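 Readout is NAUC: current area from forskolin/potentiator addition until CFTR-172, minus vehicle, relative to 3 μM VX809 (=1.0). Cells were primary CF epithelia at air-liquid interface ≥4 weeks, given basolateral compound for 24 h at 37° C; median of n≥4 replicates, sigmoid fit with nH fixed at 1.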

F508del CFTR [2] = molecular target: T1, F508del CFTR; experiment: CoPo (corrector plus potentiator) equivalent current assay in primary CF airway epithelial cells, test compound added back as potentiator, no VX-770; assay type: cell-based; set-up: key: +++: NAUC>70% of positive control; ++: NAUC 70-40% of positive control; +: NAUC<40% of positive control; O: no positive response; conditions: CoPo as % of positive control (VX-809 + acute VX-770)
Protocol: It was noticed that many of the test compounds had potentiator activity in addition to corrector activity. These compounds have been denoted as CoPos by FDL and others. To measure both the corrector and potentiator activity of a compound the following changes were made to the test conditions. Cells were treated as usual with the test compounds for at least 24 hours before the experiment. 30 minutes prior to the experiment the test compound is added back to the testing solution to act as a potentiator and no VX-770 (the standard CFTR potentiator) was used with the test compound. The negative control was no longer just DMSO (no corrector) but changed to VX-809 (the standard corrector) plus VX-770 treatment for at least 24 hours. 30 minutes prior to the experiment both VX-809 and VX-770 were added back to the testing solution. This treatment led to a smaller response than the positive control of correcting F508del CFTR with VX-809 alone for at least 24 hours and adding VX-770 acutely with the forskolin addition (just as in the corrector assay).
A CoPo reading of zero means that the test compound has the same forskolin stimulated response as VX-809+VX-770 treatment for 24 hours. A CoPo reading of 1.0 means the test compound has the same forskolin response as cell treated with VX-809 and stimulated with forskolin+VX-770. CoPo activity “+++” refers to an observed CoPo>70% of positive control; CoPo activity “++” refers to an observed CoPo 70-40% of positive control; CoPo activity “+” refers to an observed CoPo<40% of positive control and “O” refers to no positive response.

Compound	Corr Activity (NAUC) (F508del CFTR [1])	CoPo Activity (F508del CFTR [2])
CCN(C(=O)Cn1nc(-c2cccc(F)c2)c2[nH]cnc2c1=O)c1ccc2c(c1)OC(F)(F)O2 [Example 25]	+++ (NAUC>70% of positive control)	+ (CoPo<40% of positive control)
CN(C(=O)Cn1nc(-c2cccc(C#N)c2)c2[nH]cnc2c1=O)c1ccc2c(c1)OC(F)(F)O2 [Example 23]	+ (NAUC<40% of positive control)	+ (CoPo<40% of positive control)
CCN(C(=O)Cn1nc(-c2cccc(C#N)c2)c2occc2c1=O)c1ccc2c(c1)CCC2 [Example 12]	+++ (NAUC>70% of positive control)	+++ (CoPo>70% of positive control)
CN(C(=O)Cn1nc(-c2cccc(F)c2)c2occc2c1=O)c1ccc2c(c1)OC(F)(F)O2 [Example 8]	+++ (NAUC>70% of positive control)	++ (CoPo 70-40% of positive control)
CN(C(=O)Cn1nc(-c2cccc(Cl)c2)c2[nH]cnc2c1=O)c1ccc2c(c1)OC(F)(F)O2 [Example 22]	++ (NAUC 70-40% of positive control)	O

Further lines, results first:

Corr Activity (NAUC) (F508del CFTR [1])	CoPo Activity (F508del CFTR [2])	Compound
+++ (NAUC>70% of positive control)	++ (CoPo 70-40% of positive control)	CCN(C(=O)Cn1nc(-c2cccc(F)c2)c2c(c1=O)CCO2)c1ccc2c(c1)OC(F)(F)O2 [Example 161]
+++ (NAUC>70% of positive control)	+++ (CoPo>70% of positive control)	CCN(C(=O)Cn1nc(-c2cccc(C#N)c2)c2occc2c1=O)c1ccc2c(c1)OC(F)(F)O2 [Example 10]
+++ (NAUC>70% of positive control)	+++ (CoPo>70% of positive control)	CN(C(=O)Cn1nc(-c2cccc(Cl)c2)c2occc2c1=O)c1ccc2c(c1)OC(F)(F)O2 [Example 9]
++ (NAUC 70-40% of positive control)	+ (CoPo<40% of positive control)	CN(C(=O)Cn1nc(-c2cccc(F)c2)c2c(c1=O)CCO2)c1ccc2c(c1)OC(F)(F)O2 [Example 160]
+++ (NAUC>70% of positive control)	+++ (CoPo>70% of positive control)	CN(C(=O)Cn1nc(-c2cccc(C#N)c2)c2occc2c1=O)c1ccc2c(c1)OC(F)(F)O2 [Example 11]
+ (NAUC<40% of positive control)	O	CN(C(=O)Cn1nc(-c2cccc(F)c2)c2nc[nH]c2c1=O)c1ccc2c(c1)OC(F)(F)O2 [Example 21]
